Experimental data published in patent publication US20210315840A1, “SOLID ORAL DOSAGE FORMS OF KETAMINE DERIVATIVES” (priority 2017, published 2021).

Tests used:
MAO-A = MAO-A (Homo sapiens, UniProt P21397); experiment: Binding assay MAO-A
Description: (§1) 2R,6R-hydroxynorketamine was investigated for binding to monoamine oxidases A and B, monoamine transporters, as well as a variety of 5HT receptors.

CYP3A4 [1] = biological target: T1, CYP3A4 (Homo sapiens, UniProt P08684); experiment: CYP inhibition assay CYP3A4, substrate midazolam; type: in vitro ADME; conditions: for % Inhibition: Substrate = midazolam
Description: (§2) Cytochrome P450s (CYPs) are a family of enzymes that play a primary role in the metabolism of a wide variety of drugs. 2R,6R-hydroxynorketamine was investigated for its potential to inhibit the action of 7 key CYP enzymes using an inhibition assay measuring reduction in the formation of metabolites compared to control.

[2] = Turbidimetric aqueous solubility; type: physicochemical
CYP2D6 = CYP2D6 (Homo sapiens, UniProt P10635); experiment: CYP inhibition assay CYP2D6; type: in vitro ADME
Description: as §2

[3] = pKa by potentiometric (pH-metric) titration; type: physicochemical; conditions: methanol-water co-solvent, Yasuda-Shedlovsky extrapolation
Protocol: The sample pKa was determined using the potentiometric (pH-metric) technique following attempts to determine pKa via UV spectroscopic techniques.
UV-metric: The sample was initially titrated in a fast-UV triple titration between pH 2.0-12.0 at concentrations of 31-19 μM, under aqueous conditions. No evidence of any sample ionisation within the investigated pH range was inferred from the spectroscopic data obtained, meaning that any ionisable groups were remote from chromophores. Therefore, the sample was analysed using the pH-metric method.
pH-metric: The sample was subsequently titrated using the potentiometric technique to determine the non-UV active pKas. A triple titration was carried out under methanol-water co-solvent conditions from pH 2.0-12.0 at concentrations of 0.9-0.6 mM (the methanol mixing ratio varied from 53.0 to 33.3% w/w).

CYP3A4 [4] = biological target: T1, CYP3A4; experiment: CYP inhibition assay CYP3A4, substrate testosterone; type: in vitro ADME; conditions: for % Inhibition: Substrate = testosterone
Description: as §2

CYP2C8 = biological target: T2, CYP2C8 (Homo sapiens, UniProt P10632); experiment: CYP inhibition assay CYP2C8; type: in vitro ADME
T2 sequence (P10632 1-490): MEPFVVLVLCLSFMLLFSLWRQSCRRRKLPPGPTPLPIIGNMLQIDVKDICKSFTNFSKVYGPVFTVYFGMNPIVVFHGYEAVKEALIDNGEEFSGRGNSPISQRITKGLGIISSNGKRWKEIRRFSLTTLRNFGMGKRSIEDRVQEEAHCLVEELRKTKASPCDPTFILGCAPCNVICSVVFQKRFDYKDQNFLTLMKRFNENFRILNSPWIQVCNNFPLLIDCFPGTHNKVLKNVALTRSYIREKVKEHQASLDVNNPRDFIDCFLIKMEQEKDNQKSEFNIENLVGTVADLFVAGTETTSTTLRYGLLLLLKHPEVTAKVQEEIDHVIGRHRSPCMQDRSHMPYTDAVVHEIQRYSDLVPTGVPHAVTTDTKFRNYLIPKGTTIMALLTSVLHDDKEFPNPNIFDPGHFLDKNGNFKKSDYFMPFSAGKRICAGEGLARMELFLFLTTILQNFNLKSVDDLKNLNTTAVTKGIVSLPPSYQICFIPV
Description: as §2

[5] = test system: cryopreserved hepatocytes; experiment: Hepatocyte stability assay, rat; conditions: 3 μM
Protocol: Test compound (3 μM) was incubated with cryopreserved hepatocytes in suspension. Samples are removed at 6 time points over the course of 120 minutes and analysed by LC-MS/MS.

CYP2C19 = CYP2C19 (Homo sapiens, UniProt P33261); experiment: CYP inhibition assay CYP2C19; type: in vitro ADME
Description: as §2

[6] = Oral bioavailability in vivo after oral gavage; conditions: mice
MAO-B = MAO-B (Homo sapiens, UniProt P27338); experiment: Binding assay MAO-B
Description: as §1

5-HT2B = 5-HT2B (Homo sapiens, UniProt P41595); experiment: Binding assay 5-HT2B
Description: as §1

5-HT2C = biological target: T3, 5-HT2C (Homo sapiens, UniProt P28335); experiment: Binding assay 5-HT2C
T3 sequence (P28335 33-458): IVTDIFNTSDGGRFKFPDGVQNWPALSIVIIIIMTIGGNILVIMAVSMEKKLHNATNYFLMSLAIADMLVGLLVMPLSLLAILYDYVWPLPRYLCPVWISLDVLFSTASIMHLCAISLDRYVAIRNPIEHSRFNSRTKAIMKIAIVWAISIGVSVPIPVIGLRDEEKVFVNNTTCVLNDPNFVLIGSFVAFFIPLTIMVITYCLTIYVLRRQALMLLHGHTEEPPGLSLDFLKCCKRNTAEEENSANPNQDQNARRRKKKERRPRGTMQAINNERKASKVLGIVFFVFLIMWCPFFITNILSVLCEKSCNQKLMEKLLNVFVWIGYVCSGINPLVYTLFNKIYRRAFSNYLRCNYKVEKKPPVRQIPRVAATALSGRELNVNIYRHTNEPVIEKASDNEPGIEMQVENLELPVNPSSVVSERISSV
Description: as §1

5-HT2B, sequence (P41595 whole entry, species assumed): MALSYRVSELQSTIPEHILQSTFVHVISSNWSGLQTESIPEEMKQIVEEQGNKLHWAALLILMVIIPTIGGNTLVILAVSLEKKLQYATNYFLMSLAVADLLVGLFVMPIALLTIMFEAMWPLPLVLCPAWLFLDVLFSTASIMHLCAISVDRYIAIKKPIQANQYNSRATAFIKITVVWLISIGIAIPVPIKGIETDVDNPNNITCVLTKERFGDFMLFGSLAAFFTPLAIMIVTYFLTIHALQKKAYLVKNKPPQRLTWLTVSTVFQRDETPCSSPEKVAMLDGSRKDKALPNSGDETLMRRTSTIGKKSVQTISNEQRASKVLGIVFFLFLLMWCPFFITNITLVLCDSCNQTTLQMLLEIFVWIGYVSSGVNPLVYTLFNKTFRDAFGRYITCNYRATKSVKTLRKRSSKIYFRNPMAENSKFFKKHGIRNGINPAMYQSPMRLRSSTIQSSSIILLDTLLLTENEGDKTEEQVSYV
CYP2D6, sequence (P10635 whole entry): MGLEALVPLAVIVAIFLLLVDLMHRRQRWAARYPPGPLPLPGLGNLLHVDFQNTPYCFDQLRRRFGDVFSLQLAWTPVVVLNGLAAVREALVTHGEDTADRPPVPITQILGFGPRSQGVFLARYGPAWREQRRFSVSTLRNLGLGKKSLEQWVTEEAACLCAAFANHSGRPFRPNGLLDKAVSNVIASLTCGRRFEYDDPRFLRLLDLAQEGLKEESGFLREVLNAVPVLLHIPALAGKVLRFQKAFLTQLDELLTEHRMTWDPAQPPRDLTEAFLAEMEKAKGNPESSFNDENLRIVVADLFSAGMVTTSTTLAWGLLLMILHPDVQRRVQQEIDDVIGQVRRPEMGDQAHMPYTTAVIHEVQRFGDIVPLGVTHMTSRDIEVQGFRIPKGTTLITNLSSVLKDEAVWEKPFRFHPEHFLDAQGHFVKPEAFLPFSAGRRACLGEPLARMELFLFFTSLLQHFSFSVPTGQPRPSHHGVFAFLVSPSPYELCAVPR
CYP2C19, sequence (P33261 whole entry): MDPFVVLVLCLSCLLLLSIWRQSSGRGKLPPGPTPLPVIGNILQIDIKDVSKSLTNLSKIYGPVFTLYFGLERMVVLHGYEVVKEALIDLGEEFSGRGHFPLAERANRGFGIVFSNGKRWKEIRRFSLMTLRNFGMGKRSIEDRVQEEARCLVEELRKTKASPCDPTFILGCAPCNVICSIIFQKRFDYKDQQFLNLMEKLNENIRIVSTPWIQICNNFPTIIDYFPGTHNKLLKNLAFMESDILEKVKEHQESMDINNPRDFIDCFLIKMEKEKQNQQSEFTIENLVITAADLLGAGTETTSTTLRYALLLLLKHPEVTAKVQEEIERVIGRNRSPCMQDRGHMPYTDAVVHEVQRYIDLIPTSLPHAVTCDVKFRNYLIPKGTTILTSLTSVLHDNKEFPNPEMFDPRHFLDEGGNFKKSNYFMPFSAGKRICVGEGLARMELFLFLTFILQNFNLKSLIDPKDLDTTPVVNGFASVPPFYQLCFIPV
T1 sequence (P08684 whole entry): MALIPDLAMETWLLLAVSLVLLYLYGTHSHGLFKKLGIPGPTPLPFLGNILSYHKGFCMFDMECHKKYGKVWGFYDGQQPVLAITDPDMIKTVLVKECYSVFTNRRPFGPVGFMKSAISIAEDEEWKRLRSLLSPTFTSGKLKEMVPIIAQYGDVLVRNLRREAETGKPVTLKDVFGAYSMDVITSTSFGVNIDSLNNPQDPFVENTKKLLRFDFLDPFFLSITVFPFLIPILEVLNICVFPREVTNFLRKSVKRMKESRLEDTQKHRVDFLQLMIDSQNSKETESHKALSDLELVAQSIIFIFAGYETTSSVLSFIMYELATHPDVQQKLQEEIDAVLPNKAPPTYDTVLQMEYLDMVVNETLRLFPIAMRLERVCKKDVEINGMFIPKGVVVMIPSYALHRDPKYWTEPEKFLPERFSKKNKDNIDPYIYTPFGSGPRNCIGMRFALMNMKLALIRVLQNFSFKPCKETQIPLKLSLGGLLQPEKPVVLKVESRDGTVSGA
MAO-B, sequence (P27338 whole entry, species assumed): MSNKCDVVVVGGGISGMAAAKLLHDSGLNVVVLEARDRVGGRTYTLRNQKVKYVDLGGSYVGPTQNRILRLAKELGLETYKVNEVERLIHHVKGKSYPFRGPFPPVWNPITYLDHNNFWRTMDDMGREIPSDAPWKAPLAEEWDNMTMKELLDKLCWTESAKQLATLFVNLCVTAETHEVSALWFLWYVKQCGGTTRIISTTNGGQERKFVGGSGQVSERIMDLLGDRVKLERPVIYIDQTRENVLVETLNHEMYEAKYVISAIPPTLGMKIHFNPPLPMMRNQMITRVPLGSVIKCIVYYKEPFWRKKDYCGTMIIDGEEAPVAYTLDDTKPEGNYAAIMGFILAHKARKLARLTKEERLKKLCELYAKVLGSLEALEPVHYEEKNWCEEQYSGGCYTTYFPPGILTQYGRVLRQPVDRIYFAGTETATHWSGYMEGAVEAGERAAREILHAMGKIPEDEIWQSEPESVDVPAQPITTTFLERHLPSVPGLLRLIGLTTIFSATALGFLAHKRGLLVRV
MAO-A, sequence (P21397 whole entry, species assumed): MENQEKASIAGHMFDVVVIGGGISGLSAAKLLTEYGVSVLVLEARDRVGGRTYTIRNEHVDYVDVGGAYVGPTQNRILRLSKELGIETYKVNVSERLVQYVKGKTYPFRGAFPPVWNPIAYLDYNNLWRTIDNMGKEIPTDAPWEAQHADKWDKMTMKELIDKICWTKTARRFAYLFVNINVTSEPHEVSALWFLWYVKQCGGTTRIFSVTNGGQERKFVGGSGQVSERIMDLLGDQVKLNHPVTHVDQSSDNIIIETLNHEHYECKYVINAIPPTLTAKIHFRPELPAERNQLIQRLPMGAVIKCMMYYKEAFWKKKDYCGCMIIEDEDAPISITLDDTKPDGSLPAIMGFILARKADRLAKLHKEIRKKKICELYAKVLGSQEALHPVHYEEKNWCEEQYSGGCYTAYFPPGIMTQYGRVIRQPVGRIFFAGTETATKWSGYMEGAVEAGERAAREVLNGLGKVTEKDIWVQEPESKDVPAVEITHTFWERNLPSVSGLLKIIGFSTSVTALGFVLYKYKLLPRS

## N[C@@]1(c2ccccc2Cl)CCC[C@@H](O)C1=O [2R,6R-hydroxynorketamine, 2R,6R-2-(2-Chlorophenyl)-2-(amino)-6-hydroxycyclohexanone]
MAO-A
  % Inhibition of Control Specific Binding: −5%
  % of Control Specific Binding: 97.7%
CYP3A4 [1]; 0.4 μM
  % Inhibition: 11.5%
CYP3A4 [1]; 1 μM
  % Inhibition: 8.44%
CYP3A4 [1]; 4 μM
  % Inhibition: 15.7%
CYP3A4 [1]; 10 μM
  % Inhibition: 25.7%
CYP3A4 [1]; 40 μM
  % Inhibition: 43.7%
CYP3A4 [1]; 100 μM
  % Inhibition: 57.5%
CYP3A4 [1]; substrate midazolam
  IC50: 69 µM
[2]
  solubility (in words): high
CYP2D6
  inhibition of CYP2D6 (in words): did not inhibit
CYP2D6; 0.4 μM
  % Inhibition: 3.16%
CYP2D6; 1 μM
  % Inhibition: 6.65%
CYP2D6; 4 μM
  % Inhibition: 11.5%
CYP2D6; 10 μM
  % Inhibition: 9.41%
CYP2D6; 40 μM
  % Inhibition: 11.2%
CYP2D6; 100 μM
  % Inhibition: 5.73%
[3]
  pKa: 6.51+/−0.02
CYP3A4 [4]; 0.4 μM
  % Inhibition: 1.62%
CYP3A4 [4]; 1 μM
  % Inhibition: −0.509%
CYP3A4 [4]; 4 μM
  % Inhibition: 7.04%
CYP3A4 [4]; 10 μM
  % Inhibition: 12.4%
CYP3A4 [4]; 40 μM
  % Inhibition: 35.2%
CYP3A4 [4]; 100 μM
  % Inhibition: 53.4%
CYP3A4 [4]; substrate testosterone
  IC50: 81 µM
CYP2C8
  inhibition of CYP2C8 (in words): did not inhibit
CYP2C8; 0.4 μM
  % Inhibition: 5.63%
CYP2C8; 1 μM
  % Inhibition: 4.91%
CYP2C8; 4 μM
  % Inhibition: 12.5%
CYP2C8; 10 μM
  % Inhibition: 8.33%
CYP2C8; 40 μM
  % Inhibition: 8.35%
CYP2C8; 100 μM
  % Inhibition: 2.08%
[5]
  CLint: 55.2 μL/min/10^6 cells
  t1/2: 25.1 min
CYP2C19
  inhibition of CYP2C19 (in words): did not inhibit
CYP2C19; 0.4 μM
  % Inhibition: −2.01%
CYP2C19; 1 μM
  % Inhibition: −1.66%
CYP2C19; 4 μM
  % Inhibition: 1.85%
CYP2C19; 10 μM
  % Inhibition: 6.69%
CYP2C19; 40 μM
  % Inhibition: 8.25%
CYP2C19; 100 μM
  % Inhibition: 16.1%
[6]; high oral dose (>30 mg/kg)
  oral bioavailability: good
[6]; low oral dose
  oral bioavailability: poor
MAO-B
  % Inhibition of Control Specific Binding: −1%
  % of Control Specific Binding: 100.4%
5-HT2B
  % Inhibition of Control Specific Binding: 5%
  % of Control Specific Binding: 100.9%
  binding to 5HT2B receptor subtype (in words): does not bind
5-HT2C
  % Inhibition of Control Specific Binding: 10%
  % of Control Specific Binding: 91.1%
  binding to 5HT2C receptor subtype (in words): does not bind
